# Results reported in the supplement of paper PMC10307832.
# Assays:
# Assay in all cases: relative viability (nuclei count vs DMSO), 5 days (fraction); higher = more cells survive
# RERF-LC-KJ = tested on: RERF-LC-KJ
# Procedure, shortened: (§1)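 The day after seeding in 1536-well plates, lung cancer cell lines were treated by pin tool with a single drug, or with a fixed anchor-drug dose together with five library-drug doses (not always all listed) in √10 steps. After 5 days, a combined fix-and-stain solution (final 0.05% Triton X-100, 1% formaldehyde, 1 ug/ml Hoechst) was added. Nuclei counted on 4× images gave relative viability as treated counts over vehicle counts, reported as the median of duplicate plates.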
# EKVX = tested on: EKVX
# Procedure, shortened: as §1
# NCI-H2405 = tested on: NCI-H2405
# Procedure, shortened: as §1
# NCI-H1666 = tested on: NCI-H1666
# Procedure, shortened: as §1
# NCI-H838 = tested on: NCI-H838
# Procedure, shortened: as §1
# NCI-H1395 = tested on: NCI-H1395
# Procedure, shortened: as §1
# COR-L23 = tested on: COR-L23
# Procedure, shortened: as §1
# HARA = tested on: HARA
# Procedure, shortened: as §1
# BEN = tested on: BEN
# Procedure, shortened: as §1
# NCI-H460 = tested on: NCI-H460
# Procedure, shortened: as §1
# NCI-H1993 = tested on: NCI-H1993
# Procedure, shortened: as §1
# LOU-NH91 = tested on: LOU-NH91
# Procedure, shortened: as §1
# NCI-H1975 = tested on: NCI-H1975
# Procedure, shortened: as §1
# NCI-H1793 = tested on: NCI-H1793
# Procedure, shortened: as §1
# NCI-H650 = tested on: NCI-H650
# Procedure, shortened: as §1
# NCI-H1915 = tested on: NCI-H1915
# Procedure, shortened: as §1
# NCI-H2228 = tested on: NCI-H2228
# Procedure, shortened: as §1
# NCI-H2023 = tested on: NCI-H2023
# Procedure, shortened: as §1
# LU99A = tested on: LU99A
# Procedure, shortened: as §1
# A-427 = tested on: A-427
# Procedure, shortened: as §1
# SW 1573 = tested on: SW 1573
# Procedure, shortened: as §1
smiles,measurement,setting,value
COCC1(CO)C(=O)C2CCN1CC2 (stereo not given) [PRIMA-1MET] + C[C@]1(O)C[C@@H](c2nc(-c3ccc4ccc(-c5ccccc5)nc4c3)c3c(N)nccn32)C1 [Linsitinib] (partner 1 µM),relative viability,RERF-LC-KJ; first compound 0.2 µM,0.961
same,relative viability,RERF-LC-KJ; first compound 0.6325 µM,0.955
same,relative viability,RERF-LC-KJ; first compound 2 µM,0.832
same,relative viability,RERF-LC-KJ; first compound 6.325 µM,0.922
same,relative viability,RERF-LC-KJ; first compound 20 µM,0.875
same,relative viability,EKVX; first compound 0.2 µM,0.999
same,relative viability,EKVX; first compound 0.6325 µM,0.912
same,relative viability,EKVX; first compound 2 µM,0.707
same,relative viability,EKVX; first compound 6.325 µM,1.03
same,relative viability,EKVX; first compound 20 µM,0.804
same,relative viability,NCI-H2405; first compound 0.2 µM,0.635
same,relative viability,NCI-H2405; first compound 0.6325 µM,1.01
same,relative viability,NCI-H2405; first compound 6.325 µM,0.727
same,relative viability,NCI-H2405; first compound 20 µM,0.0877
same,relative viability,NCI-H1666; first compound 0.2 µM,0.794
same,relative viability,NCI-H1666; first compound 0.6325 µM,0.781
same,relative viability,NCI-H1666; first compound 2 µM,0.833
same,relative viability,NCI-H1666; first compound 6.325 µM,0.742
same,relative viability,NCI-H1666; first compound 20 µM,0.134
same,relative viability,NCI-H838; first compound 0.2 µM,1.21
same,relative viability,NCI-H838; first compound 0.6325 µM,1.02
same,relative viability,NCI-H838; first compound 2 µM,1.04
same,relative viability,NCI-H838; first compound 6.325 µM,1.14
same,relative viability,NCI-H838; first compound 20 µM,1.06
same,relative viability,NCI-H1395; first compound 0.2 µM,1.1
same,relative viability,NCI-H1395; first compound 0.6325 µM,0.909
same,relative viability,NCI-H1395; first compound 2 µM,0.958
same,relative viability,NCI-H1395; first compound 6.325 µM,1.61
same,relative viability,NCI-H1395; first compound 20 µM,0.859
same,relative viability,COR-L23; first compound 0.2 µM,0.94
same,relative viability,COR-L23; first compound 0.6325 µM,0.942
same,relative viability,COR-L23; first compound 2 µM,0.978
same,relative viability,COR-L23; first compound 6.325 µM,0.873
same,relative viability,COR-L23; first compound 20 µM,0.0228
same,relative viability,HARA; first compound 0.2 µM,1.16
same,relative viability,HARA; first compound 0.6325 µM,0.265
same,relative viability,HARA; first compound 6.325 µM,0.903
same,relative viability,HARA; first compound 20 µM,0.874
same,relative viability,BEN; first compound 0.2 µM,1.04
same,relative viability,BEN; first compound 0.6325 µM,0.765
same,relative viability,BEN; first compound 6.325 µM,1.08
same,relative viability,BEN; first compound 20 µM,0.85
same,relative viability,NCI-H460; first compound 0.2 µM,1.08
same,relative viability,NCI-H460; first compound 0.6325 µM,0.545
same,relative viability,NCI-H460; first compound 2 µM,0.613
same,relative viability,NCI-H460; first compound 6.325 µM,0.0073
same,relative viability,NCI-H460; first compound 20 µM,0.0038
same,relative viability,NCI-H1993; first compound 0.2 µM,0.708
same,relative viability,NCI-H1993; first compound 0.6325 µM,0.794
same,relative viability,NCI-H1993; first compound 2 µM,0.656
same,relative viability,NCI-H1993; first compound 6.325 µM,0.725
same,relative viability,NCI-H1993; first compound 20 µM,0.757
same,relative viability,LOU-NH91; first compound 0.2 µM,1.02
same,relative viability,LOU-NH91; first compound 0.6325 µM,0.771
same,relative viability,LOU-NH91; first compound 2 µM,0.773
same,relative viability,LOU-NH91; first compound 6.325 µM,1.01
same,relative viability,LOU-NH91; first compound 20 µM,0.582
same,relative viability,NCI-H1975; first compound 0.2 µM,1.14
same,relative viability,NCI-H1975; first compound 0.6325 µM,0.838
same,relative viability,NCI-H1975; first compound 2 µM,0.875
same,relative viability,NCI-H1975; first compound 6.325 µM,1
same,relative viability,NCI-H1975; first compound 20 µM,0.826
same,relative viability,NCI-H1793; first compound 0.2 µM,0.878
same,relative viability,NCI-H1793; first compound 0.6325 µM,0.777
same,relative viability,NCI-H1793; first compound 6.325 µM,1.04
same,relative viability,NCI-H1793; first compound 20 µM,0.581
same,relative viability,NCI-H650; first compound 0.2 µM,1.13
same,relative viability,NCI-H650; first compound 2 µM,0.859
same,relative viability,NCI-H650; first compound 6.325 µM,0.674
same,relative viability,NCI-H650; first compound 20 µM,0.107
same,relative viability,NCI-H1915; first compound 0.2 µM,1.26
same,relative viability,NCI-H1915; first compound 0.6325 µM,0.933
same,relative viability,NCI-H1915; first compound 2 µM,1.03
same,relative viability,NCI-H1915; first compound 6.325 µM,1.11
same,relative viability,NCI-H1915; first compound 20 µM,1.08
same,relative viability,NCI-H2228; first compound 0.2 µM,0.735
same,relative viability,NCI-H2228; first compound 0.6325 µM,0.552
same,relative viability,NCI-H2228; first compound 2 µM,0.602
same,relative viability,NCI-H2228; first compound 6.325 µM,0.61
same,relative viability,NCI-H2228; first compound 20 µM,0.046
same,relative viability,NCI-H2023; first compound 0.2 µM,0.784
same,relative viability,NCI-H2023; first compound 0.6325 µM,0.65
same,relative viability,NCI-H2023; first compound 2 µM,0.7
same,relative viability,NCI-H2023; first compound 6.325 µM,0.668
same,relative viability,NCI-H2023; first compound 20 µM,0.609
same,relative viability,LU99A; first compound 0.2 µM,0.629
same,relative viability,LU99A; first compound 0.6325 µM,0.439
same,relative viability,LU99A; first compound 2 µM,0.567
same,relative viability,LU99A; first compound 6.325 µM,0.526
same,relative viability,LU99A; first compound 20 µM,0.189
same,relative viability,A-427; first compound 0.2 µM,1.19
same,relative viability,A-427; first compound 0.6325 µM,0.703
same,relative viability,A-427; first compound 2 µM,0.953
same,relative viability,A-427; first compound 6.325 µM,1.12
same,relative viability,A-427; first compound 20 µM,1.08
same,relative viability,SW 1573; first compound 0.2 µM,0.779
same,relative viability,SW 1573; first compound 0.6325 µM,0.796
same,relative viability,SW 1573; first compound 2 µM,0.875
same,relative viability,SW 1573; first compound 6.325 µM,0.456
same,relative viability,SW 1573; first compound 20 µM,0.0414
